Patent US20080241281A1, “Compositions & methods for activation and inhibition of Staphylococcus aureus biofilm development” (priority 2007, published 2008)

Columns and labels:
[1] = tested on: poly N-acetylglucosamine (PNAG); test: PNAG western blot of S. aureus biofilm cells (anti-PNAG rabbit polyclonal antibody); format: cell-based, Staphylococcus aureus; conditions: for PNAG synthesis in the presence of activator: LBBI-1 and LBBA-1 incubated together during biofilm growth
[2] = tested on: several cell lines (human)
[3] = tested on: S. aureus (NCTC-8325-4) biofilm; test: S. aureus biofilm assay (microtiter wells, crystal violet stain, OD590); format: cell-based, Staphylococcus aureus
Experimental: In the S. aureus biofilm assay, polystyrene microtiter wells and glass tubes well known in the art were used to develop biofilm in vitro. Fractions dissolved in water were added to a sterile tryptic soy broth (TSB, Difco, Detroit) medium at a final concentration between 0.001-0.01% (w/v). Biofilm was developed and measured according to methods well known in the art. Briefly, a single colony of S. aureus (NCTC-8325-4) (or a clinical isolate) grown on blood agar plate was inoculated into the TSB liquid medium and grown in a shaking water bath at 37° C. until it reached an optical density (OD600) of 0.6-0.8. An aliquot was further diluted in TSB to an OD of 0.05 and 0.1 ml was dispensed into sterile microtiter wells. Solubilized SSF were added to the wells (1 μl/ml from 0.1% of filter sterile stock in water). Cells without SSF served as a control. The microtiter plate was incubated at 37° C. with gentle shaking for up to 16 hours.
(§1) At different time points, cells were collected and assayed for biofilm growth. Unbound cells were aspirated and saved for measuring the growth at OD600 and cell viability on agar plates. Loosely bound cells were removed by washing with phosphate buffer saline (PBS) twice and adherent biofilm cells were stained with 1% crystal violet (CV) stain. After extensive washing, stained cells were air dried, solubilized in dimethylsulfoxide (DMSO) and lysates (100 μl) were measured by a plate reader at OD590.

S. aureus = S. aureus growth (OD600) and cell viability on agar plates; format: cell-based, Staphylococcus aureus; conditions: growth in TSB with or without substance
Experimental: as §1

rat chorda tympani nerve = conditions: glucose, sucrose, glycine and saccharine; known in the art; cited from earlier work
sweet taste = conditions: cited from earlier work

## gurmarin [LBBI-1]
[1]
  PNAG synthesis in the presence of activator: almost abolished
[1]; listed as biofilm inhibitor
  PNAG synthesis in the presence of activator: suppresses the production of PNAG
[1]; western blot, S. aureus biofilm
  PNAG production: significantly less PNAG production
[2]
  toxicity to cell lines: non-toxic
[3]; 2 μg/ml concentration, microtiter biofilm assay
  biofilm inhibitory property: confirmed
[3]; FIG. 3B
  S. aureus biofilm growth: prevents S. aureus biofilm growth
[3]; in the presence of LBBA-1
  biofilm production in the presence of LBBA-1: can inhibit biofilm production
S. aureus
  S. aureus cell growth and viability: did not affect the growth of S. aureus
Rat chorda tympani nerve
  response of the rat chorda tympani nerve to sweet-taste stimuli: suppress the response
Sweet taste
  sweet taste suppression in humans: no apparent effect
